Marks after values point to notes of the source that are not given here.
Legend:
[1] = system: proinflammatory cytokine induced CRP production by human hepatoma cell line PLC/PRF/5; assay: CRP production by cytokine stimulated human hepatoma PLC/PRF/5 cells, CRP ELISA of cell media (Example 16); type: cell-based; conditions: 10 ng/ml IL-6, 1 ng/ml IL-1, 1 μM dexamethasone, 24 hours, FIG. 1
Description: As noted above dialkyl ethers are useful for inhibiting proinflammatory cytokine induced CRP production. Studies have shown that the acute phase response can be recapitulated in cultured human hepatoma cells stimulated with the pro-inflammatory cytokines IL-6 and IL-1 in the presence of the corticosteroid Dexamethasone (Lozanski G, Berthier F, and Kushner I, 1997; Biochem J. 328:271-275). Using a similar hepatoma cell system we evaluated the effect 6,6′-oxybis(2,2-dimethylhexanoic acid) on CRP production by cytokine stimulated human hepatoma PLC/PRF/5 cells. […]
CRP protein concentrations were determined using a CRP ELISA Kit (Alpha Diagnostic International, Inc. San Antonio, Tex. USA (Cat. No.1000)). […] At the end of this incubation a 50 μl stop solution (as described by the manufacturer of the CRP kit) was added to each well and the plate was used to measure absorbance at 450 nm in a Spectra Max Plus, Molecular Devices spectrophotometer.
A CRP standard curve (in ng/ml) was generated by determining 450 nm absorbance values for different amounts of a standard CRP solution, provided by the vendor of the CRP kit, and correcting these values by subtracting the 450 nm absorbance of zero CRP control samples. CRP determinations in experimental samples was done as follows: 10 μl cell media samples in duplicates or triplicates were used to determine 450 nm absorbance. […]

[2] = system: CRP; assay: Randomized, double-blind, placebo-controlled dose-response study in patients with HDL-C <35 mg/dL, 12 weeks; CRP by high sensitivity immunonephelometry (Example 15); type: in vivo, human; conditions: for levels of CRP reduced by: 900 mg/day; for % change in CRP levels from base line: median percent change
Procedure: As noted above, the dialkyl ethers of this invention are useful for lowering plasma CRP levels. The ability of a dialkylether to lower plasma CRP levels was determined using in vivo studies routinely utilized by those skilled in the art.
A randomized, double-blind, placebo-controlled, parallel group, dose-response, multicenter study was conducted at 11 centers in the United States and one center in Canada. Eligible patients with HDL-C level<35 mg/dL (0.9 mmol/L) were selected following a 6-week, single-blind placebo, dietary lead in period conducted according to National Cholesterol Education Program (NCEP) Step 1 Diet. The NCEP Step 1 Diet guidelines are as follows:
Eligible patients with HDL-C level<35 mg/dL (0.9 mmol/L) were stratified according to whether mean serum TG level measured at both 2 and 4 weeks prior to randomization was <200 mg/dL (2.3 mmol/L) or ≧200 mg/dL (2.3 mmol/L). Within each TG stratum, patients were randomized to receive either 150, 300, 600, or 900 mg of 6,6′-oxybis(2,2-dimethylhexanoic acid) calcium saltor placebo daily (QD) for 12 weeks.
Eligible patients were women of non-childbearing potential (naturally postmenopausal or surgically sterilized) or men 18 to 80 years of age with a baseline HDL-C<35 mg/dL. Patients were excluded if they had creatine phosphokinase (CPK)>3 times the upper limit of normal (ULN), a body mass index>35 kg/m^2, uncontrolled hypertension defined as sitting diastolic blood pressure>95 mm Hg whether taking or not taking an acceptable antihypertensive medication, uncontrolled diabetes mellitus (HbA1C>10%), hepatic dysfunction including asparate aminotransferase (AST) or alanine aminotransferase (ALT)>2 times ULN, renal dysfunction as defined by blood urea nitrogen (BUN) or creatinine>2 times ULN or uncontrolled hypothyroidism (thyroid stimulating hormone>1.5 times ULN). Also excluded were those with a history of gall bladder disease or pancreatitis, a history of consuming>14 alcoholic drinks per week, or those with a known hypersensitivity to lipid-altering drugs. Patients who had myocardial infarction, severe or unstable angina pectoris, coronary artery bypass graft or any other cardiovascular event requiring hospitalization within the last 3 months were also excluded from the study. Patients were not permitted any other lipid-altering drugs during the course of the study and if on prestudy lipid-altering drug therapy, were required to undergo an additional 4-week washout period. Use of isotretinoin, insulin, warfarin, immunosuppressive agents and intermittent systemic steroids were also prohibited.
All blood samples were collected following a 12-hour fast and analyzed using methods well known to one of skill in the art; these methods are described briefly as follows. Serum concentrations of cholesterol and triglycerides were measured using an enzymatic, colorimetric assay on a Hitachi 747 analyzer. The HDL-C samples were obtained from the supernatant after precipitation of the non-HDL lipoproteins using heparin and manganese chloride. Concentrations of CRP were measured using immunonephelometry on a nephelometer (Dade Behring, Marburg, Germany). The high sensitivity assay was used to measure CRP (Dade Behring, Marburg, Germany).
Within each TG stratum, an ANCOVA model with the effects of baseline CRP value, treatment, and site was used to analyze the percent change from baseline at the last visit for CRP by producing least squares (LS) means and p-values. p-values were unadjusted for multiplicity.
The Shapiro-Wilk Test for Normality and visual analysis of the residuals was used to determine if the assumption of normality was reasonable. Since CRP levels in all patients were not normally distributed, median percent changes are presented and Conover's nonparametric ANCOVA was used to analyze the ranked data.

[3] = system: CRP; assay: Randomized, double-blind, placebo-controlled dose-response study in hypercholesterolemic patients, 8-week treatment; CRP by high sensitivity assay (Example 17); type: in vivo, human; conditions: mean of 6 and 8 week CRP level, placebo 9.4% increase
Procedure: A randomized, double-blind, placebo-controlled, parallel group, dose-response, multicenter study was conducted in hypercholesterolemic patients. The study had three periods: (1) a lipid medication wash-out visit if needed; (2) a qualifying period; and (3) an 8-week double-blind treatment period. The data discussed below is from a portion of a larger study.
Patients with significant cardiac, renal (creatinine>2.0 mg/dL) or liver (alanine aminotransferase [ALT] or aspartate aminotransferase [AST]>1.5× upper limit of normal [ULN]) disease, unexplained CPK levels>3×ULN, body mass index [BMI]>38 kg/m^2, triglycerides [TG]>400 mg/dL, or age>70 years are excluded as are women who are of childbearing potential, pregnant or lactating. A subset of eligible patients was randomized to receive placebo, 300, 600 or 900 mg/day of 6,6′-oxybis(2,2-dimethylhexanoic acid) calcium salt. Each of these groups had 13 to 15 patients.
Blood samples were collected at week −2, week −1, randomization and every two weeks thereafter. CRP levels were determined using a high sensitivity assay as in example 15. The mean of the 6 and the 8 week CRP level was calculated for each patient. Values>10 were not included in the analysis as these values are indicative of acute inflammation. For each dosage group the median of the mean values was determined. These median numbers were compared with median CRP values at baseline. Percent change from baseline in CRP levels due to the administration of 300, 600, 900 mg/day of 6,6′-oxybis(2,2-dimethylhexanoic acid) calcium salt or placebo is shown in FIG. 2. At the 300, 600 and 900 mg doses the levels of CRP were reduced by 26% (p=0.16 vs placebo), 42% (p<0.01 vs placebo) and 35% (p<0.01 vs placebo) respectively, compared to a 9.4% increase in the placebo group.

With `CC(C)(CCCCOCCCCC(C)(C)C(=O)O)C(=O)O` [6,6′-oxybis(2,2-dimethylhexanoic acid), 6,6′-Oxybis-(2,2-dimethylhexanoic acid)] the “doses that effectively inhibited proinflammatory cytokine induced CRP production” value [1] was no less than 500 µM.

With `CC(C)(CCCCOCCCCC(C)(C)C(=O)[O-])C(=O)[O-].[Ca+2]` [6,6′-oxybis(2,2-dimethylhexanoic acid), calcium salt] the “reduction in the CRP level” value ([2]; 600 mg/day, <200 mg/dL TG stratum, not statistically significant) was 58%, the “CRP level reduced by” value ([2]; 600 mg/day, ≧200 mg/dL TG stratum, p<0.05 vs Placebo) was 29% and the “levels of CRP reduced by” value ([2]; <200 mg/dL TG stratum, p<0.05 vs Placebo) was 54%. The “levels of CRP reduced by” value ([2]; ≧200 mg/dL TG stratum, p<0.001 vs placebo) was 57%, the “% change in CRP levels from base line” value ([2]; patients TG < 200 mg/dL, 150 mg daily (QD) for 12 weeks) was −14.3% and the “% change in CRP levels from base line” value ([2]; patients TG < 200 mg/dL, 300 mg daily (QD) for 12 weeks) was −16.0%. For the same molecule, the “% change in CRP levels from base line” value ([2]; patients TG < 200 mg/dL, 600 mg daily (QD) for 12 weeks, not statistically significant) was −58.3%, the “% change in CRP levels from base line” value ([2]; patients TG < 200 mg/dL, 900 mg daily (QD) for 12 weeks, p < 0.05 versus placebo) was −53.8* % and the “% change in CRP levels from base line” value ([2]; patients TG ≧ 200 mg/dL, 150 mg daily (QD) for 12 weeks) was −22.2%. For the same molecule, the “% change in CRP levels from base line” value ([2]; patients TG ≧ 200 mg/dL, 300 mg daily (QD) for 12 weeks) was −16.2%, the “% change in CRP levels from base line” value ([2]; patients TG ≧ 200 mg/dL, 600 mg daily (QD) for 12 weeks, p < 0.05 versus placebo) was −28.6* % and the “% change in CRP levels from base line” value ([2]; patients TG ≧ 200 mg/dL, 900 mg daily (QD) for 12 weeks, p < 0.001 versus placebo) was −57.1** %. The “levels of CRP reduced by (median percent change from baseline)” value ([3]; 300 mg/day, p=0.16 vs placebo) was 26%, the “levels of CRP reduced by (median percent change from baseline)” value ([3]; 600 mg/day, p<0.01 vs placebo) was 42% and the “levels of CRP reduced by (median percent change from baseline)” value ([3]; 900 mg/day, p<0.01 vs placebo) was 35%.

— patent publication US20040167229A1, “Method of lowering CRP and reducing systemic inflammation” (priority 2002, published 2004)
